According to publication PMC8933826 (EBioMedicine, 2022):

Legend:
Tet(X3) = assay: biolayer interferometry; type: binding, Acinetobacter baumannii
Tet(X4) = Tet(X4) (Escherichia coli, UniProt A0A3T0V9Y5); assay: biolayer interferometry; type: binding
Sequence of Tet(X4) (A0A3T0V9Y5 1-385): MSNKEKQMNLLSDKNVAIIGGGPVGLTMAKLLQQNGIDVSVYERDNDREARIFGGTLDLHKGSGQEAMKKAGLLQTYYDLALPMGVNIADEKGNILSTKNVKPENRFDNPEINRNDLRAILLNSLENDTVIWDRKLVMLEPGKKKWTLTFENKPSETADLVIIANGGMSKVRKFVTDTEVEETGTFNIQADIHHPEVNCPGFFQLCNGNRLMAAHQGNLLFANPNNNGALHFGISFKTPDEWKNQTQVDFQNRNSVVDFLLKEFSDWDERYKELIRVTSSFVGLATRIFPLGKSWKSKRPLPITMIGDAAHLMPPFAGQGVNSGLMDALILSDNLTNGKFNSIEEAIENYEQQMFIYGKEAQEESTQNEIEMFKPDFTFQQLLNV

CC1=CC(=O)c2c(O)cccc2C1=O [plumbagin]
Kd (Tet(X3)): 200 µM
Kd (Tet(X4)): 1600 µM
